Tests used:
[1] = system: Soluble Abeta40 levels in the rat brain and CSF; test: Test 5: In Vivo Inhibitory Activity (Abeta lowering in rat brain and CSF); settings: male Sprague-Dawley rats, oral gavage, 10 micromoles per kilogram, 4 hours prior to sacrifice; n.s.=not statistically significant
Experimental: Test 5: In Vivo Inhibitory Activity of Example Compounds
Male Sprague-Dawley rats, 220-280 g weight, (Charles River, France) were dosed by oral gavage with vehicle alone (0.1% Tween80, 0.5% methylcellulose in water) or with compound suspended in vehicle at a dose of 10 micromoles compound per kilogram body weight, 4 hours prior to sacrifice. The 4 hour timepoint was selected in order to compare the activity of compounds that have sufficient pharmacokinetic and biodistribution properties to reduce total brain Abeta within approximately three half-lives of the rat brain Abeta40 peptide.
Immediately prior to sacrifice, anaesthetized rat (spontaneous inhalation, 2-5% Isoflurane and air) were fixed in a stereotaxic apparatus on a raised platform, with anesthesia maintained though a nose cone. The angle of the head was tilted downward, perpendicular to the body, and a hypodermic needle lowered through the skin behind the occipital ridge, into the Cisterna magna. Cerebrospinal fluid (CSF) was withdrawn (˜50-100 μL), dispensed into tubes (protein Lo-bind Eppendorf tubes for Abeta40 analysis, normal Eppendorph tubes for compound analysis), frozen on dry ice and stored at −80° C. until analysis. Rats were then immediately decapitated under anesthesia, trunk blood collected for analysis of compound levels and the brain retrieved. One half-forebrain was dissected by removing the cerebellum and olfactory bulbs, frozen in three pieces on a metal plate pre-cooled on frozen CO2 and stored in tubes at −80° C. until analysis for Abeta40. For the other half-brain, olfactory bulbs were discarded and a sagittal slice taken from the medial aspect, weighing ˜200-400 mg, placed in glass HPLC tubes and frozen on dry ice until analysis for compound levels.
Soluble Abeta40 levels in the rat brain and CSF were quantified using a Meso Scale Discovery (MSD) 96-well MULTI-ARRAY human/rodent (4G8) Abeta40 Ultrasensitive Assay (#K110FTE-3, Meso Scale Discovery, Gaithersburg, USA). Forebrain sample homogenates were prepared by sonication in 9 volumes (w/v) of ice cold TBA. Fifty μL of 2% TX-100 in TBS-complete was added to 50 μL aliquots of the homogenate to reach a final concentration of 1% TX-100 in a 1:20 dilution. Samples were incubated on ice for 15 min interrupted with 3 short vortexing steps, then centrifuged (100 000×g, 4° C., 15 min), and 50 μL of supernatant collected. This was further diluted 1:5 with 3% Blocker A solution from the MSD kit to a final dilution of 1:100 and applied to the MSD plate. CSF samples containing blood were excluded. All other CSF samples were diluted with 1% Blocker A solution (from manufacturers kit) to reach a 1:20 CSF dilution. Calibration curves were prepared in 1% Blocker A solution spiked with synthetic Abeta1-40 peptide. Samples and calibration standards were applied in duplicate at a volume of 25 μL per well. Abeta40 concentrations of samples were estimated from the standard curve using SOFTmax PRO4.0.

[2] = molecular target: Human BACE-2 (Homo sapiens (Human), UniProt Q9Y5Z0); test: Test 2: Inhibition of Human BACE-2; type: biochemical; settings: recombinant BACE-2, pH 4.5, 1 hour preincubation
Experimental: Test 2: Inhibition of Human BACE-2
(§1) Recombinant BACE-2 (extracellular domain, expressed in baculovirus and purified using standard methods) at 0.1 to 1 nM concentrations is incubated with the test compound at various concentrations for 1 hour at room temperature in 100 mM acetate buffer, pH 4.5, containing 0.1% CHAPS. Activity was measured using a final concentration of 3 μM of the fluorescence-quenched substrate Q-C(HSO3)-Ile-Asp-Leu-Ala-Val-Leu-Asp-HN—CH2—CH2-Mca, where Q=2-nitro-5-amino benzoic acid and Mca=7-methoxy-4-coumarinyl acetic acid. Catalytic turnover was monitored in a Spectramax Gemini fluorescence plate reader (Molecular Devices) in black 96-well microplates using excitation/emission wavelength of 325 nm and 400 nm, respectively. Fluorescence increase was followed for 15 min, in 1 minute's intervals. The fluorescence/time slopes were calculated from duplicate wells and from wells without inhibitor and the IC50 values were calculated using a logistic 4-parameter model.

[3] = molecular target: Human BACE-1 (Homo sapiens (Human), UniProt P56817); test: Test 1: Inhibition of Human BACE-1; type: biochemical; settings: recombinant BACE-1, pH 4.5, 1 hour preincubation
Experimental: Test 1: Inhibition of Human BACE-1
as §1, with “BACE-1” for “BACE-2”

[4] = Test 4: Inhibition of Cellular Release of Amyloid Peptide 1-40; type: cell-based, Chinese hamster; settings: Cricetulus griseus; CHO cells with human APP, 24 hours with compound; read-out: Test 4 Amyloid-β1-40 release IC50
Experimental: The cells are plated at a density of 8000 cells/well into 96-well microtiter plates and cultivated for 24 hours in DMEM cell culture medium containing 10% FCS. The test compound is added to the cells at various concentrations, and the cells are cultivated for 24 hours in the presence of the test compound. […] The potency of the compound is calculated from the percentage of inhibition of amyloid peptide release as a function of the test compound concentration.

Chain of Human BACE-1 (P56817 46-457): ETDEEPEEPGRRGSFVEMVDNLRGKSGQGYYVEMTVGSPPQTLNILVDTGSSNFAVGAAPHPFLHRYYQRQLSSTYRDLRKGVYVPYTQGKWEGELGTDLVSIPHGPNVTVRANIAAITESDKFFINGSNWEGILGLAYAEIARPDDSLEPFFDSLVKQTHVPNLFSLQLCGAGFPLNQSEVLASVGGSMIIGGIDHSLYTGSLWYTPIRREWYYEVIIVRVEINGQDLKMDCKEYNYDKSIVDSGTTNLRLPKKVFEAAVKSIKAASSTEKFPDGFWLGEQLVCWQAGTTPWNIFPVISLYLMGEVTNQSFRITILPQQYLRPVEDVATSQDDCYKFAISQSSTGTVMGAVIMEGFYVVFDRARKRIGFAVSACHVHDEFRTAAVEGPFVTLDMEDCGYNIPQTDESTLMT
Chain of Human BACE-2 (Q9Y5Z0 63-473): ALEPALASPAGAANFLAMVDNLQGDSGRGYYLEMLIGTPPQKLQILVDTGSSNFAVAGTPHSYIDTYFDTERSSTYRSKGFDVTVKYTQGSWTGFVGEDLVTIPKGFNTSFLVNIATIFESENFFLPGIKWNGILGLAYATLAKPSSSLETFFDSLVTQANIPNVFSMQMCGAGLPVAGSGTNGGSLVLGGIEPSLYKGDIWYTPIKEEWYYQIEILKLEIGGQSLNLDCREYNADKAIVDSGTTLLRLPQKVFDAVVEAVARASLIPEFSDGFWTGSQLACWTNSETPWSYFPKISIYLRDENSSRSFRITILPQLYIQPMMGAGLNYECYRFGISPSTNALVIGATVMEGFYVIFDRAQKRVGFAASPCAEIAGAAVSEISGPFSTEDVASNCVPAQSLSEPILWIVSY

IC50 [2] [nM]	IC50 [3] [nM]	IC50 [4] [nM]	Compound	Abeta lowering in rat CSF [1] [%]	Abeta lowering in rat forebrain [1] [%]
71	12	8	C[C@]1(c2nc(NC(=O)c3ncc(C#N)cc3Cl)ccc2F)N=C(N)OCC1(F)F [Example 2, 3-Chloro-5-cyano-pyridine-2-carboxylic acid [6-((R)-2-amino-5,5-difluoro-4-methyl-5,6-dihydro-4H-[1,3]oxazin-4-yl)-5-fluoro-pyridin-2-yl]-amide]	−70.7	−67.1
7	19	13	C[C@]1(c2nc(NC(=O)c3nn(C(F)F)cc3Cl)ccc2F)N=C(N)OCC1(F)F [Example 30, 4-Chloro-1-difluoromethyl-1H-pyrazole-3-carboxylic acid [6-((R)-2-amino-5,5-difluoro-4-methyl-5,6-dihydro-4H-[1,3]oxazin-4-yl)-5-fluoro-pyridin-2-yl]-amide]	−55.2	−46.6

— patent publication US9163011B2, “Oxazine derivatives and their use in the treatment of disease” (NOVARTIS AG, priority 2011, dated 2015)
